In patent US5877019A, “Animal 2-5A-dependent RNases and encoding sequences therefor” (Cleveland Clinic Foundation, priority 1996, dated 1999):
“Also recorded” adds a separate entry of the source.

Tests used:
[1] = system: human 2-5A-dependent RNase; conditions: purified enzyme, poly(rU) substrate; for concentration giving maximal activation of 2-5A-dependent RNase: 30 minutes 30° C.
Experimental: Assays were with 50 ng of superose 12 purified fractions of the 2-5A-dependent RNase at 30° C. for 30 minutes using 12 nM poly(rU)-^32 P[Cp] as substrate.
To determine the structural requirement of 2-5A required for activation of 2-5A-dependent RNase, ribonuclease activity against poly(rU) was determined as a function of oligonucleotide concentration. The purified 2-5A-dependent RNase was used in these assays.
(§3) RNA and DNA molecules used were poly(rU), poly(A), poly(G), poly(C), or poly(dT) from Pharmacia and were labeled at their 3'-termini with ^32 P-pCp (3,000 Ci per mmole) and T4 RNA ligase as described previously (Silverman, R. H., Anal. Biochem. 144, 450-460 1985). Fractions containing 2-5A-dependent RNase were incubated in the presence or absence of 100 nM of p3 (A2'p)3 A (or other oligonucleotides), 8 to 16 nM of ^32 P-labeled RNA in final volumes of 25 μls at 30° C. The trichloracetic acid-insoluble fraction of RNA was then determined by filtering on glass-fiber filters in the presence of carrier yeast tRNA as described previously (Silverman, R. H., Anal. Biochem. 144, 450-460 1985).

2-5A-dependent RNase [2] = target: T1, 2-5A-dependent RNase (Homo sapiens, UniProt Q05823); test: Divalent cation and ATP effects on 2-5A-dependent RNase activity of dialyzed enzyme; assay type: biochemical; conditions: EDTA/EGTA buffer
T1 sequence (Q05823 1-741): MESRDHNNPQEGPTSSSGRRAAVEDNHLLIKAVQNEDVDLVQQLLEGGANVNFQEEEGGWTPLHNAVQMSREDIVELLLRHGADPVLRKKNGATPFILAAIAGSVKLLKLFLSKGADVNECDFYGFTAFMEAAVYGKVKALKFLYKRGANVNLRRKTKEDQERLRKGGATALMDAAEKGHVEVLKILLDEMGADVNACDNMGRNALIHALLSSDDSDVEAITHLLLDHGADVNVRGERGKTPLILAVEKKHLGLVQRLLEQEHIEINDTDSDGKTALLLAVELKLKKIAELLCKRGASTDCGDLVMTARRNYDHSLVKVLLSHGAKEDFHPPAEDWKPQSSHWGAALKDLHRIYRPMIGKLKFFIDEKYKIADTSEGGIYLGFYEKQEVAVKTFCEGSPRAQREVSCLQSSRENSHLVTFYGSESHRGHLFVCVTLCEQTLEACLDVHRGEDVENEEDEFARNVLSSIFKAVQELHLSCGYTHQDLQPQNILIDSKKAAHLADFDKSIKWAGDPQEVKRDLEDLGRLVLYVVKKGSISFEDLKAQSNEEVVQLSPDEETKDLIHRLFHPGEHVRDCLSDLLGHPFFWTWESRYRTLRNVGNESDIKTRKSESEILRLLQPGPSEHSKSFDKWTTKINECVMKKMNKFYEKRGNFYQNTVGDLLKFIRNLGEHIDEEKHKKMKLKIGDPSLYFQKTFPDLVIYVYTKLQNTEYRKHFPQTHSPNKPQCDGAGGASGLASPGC
Experimental: (§1) The divalent cation requirements of 2-5A-dependent RNase were determined after extensive dialysis against buffer containing both EDTA and EGTA. More particularly, purified 2-5A-dependent RNase (about 100 μg in 100 μl), post-mono Q column fraction, was dialyzed at 4° C. against 25 mM Tris-HCl (pH 7.4), 2.5 mM EDTA, 2.5 mM EGTA, 14 mM 2-mercaptoethanol, and 100 mM KCl (first against 400 ml for four hours, then against 600 ml for ten hours, and finally against 200 ml of reaction buffer (EDTA and EGTA were reduced to 0.5 mM) for another four hours.
(§2) Activity assays were also performed in the presence of EDTA/EGTA to ensure the chelation of metal ions present in the reagents. […] For the filter binding assay, a ^32 P-labeled and bromine substituted 2-5A analog, p(A2'p)2 (br^8 A2'p)2 A3'-32P]Cp, 10,000 counts per minute per assay, at about 3,000 Ci per mmole, was incubated with fractions containing 2-5A-dependent RNase (or controls) at 4° C. for one hour.

2-5A-dependent RNase [3] = target: T1, 2-5A-dependent RNase; test: Divalent cation and ATP effects on 2-5A binding activity of dialyzed enzyme; conditions: EDTA/EGTA buffer
Experimental: as §1, §2

[4] = system: murine 2-5A-dependent RNase; test: UV covalent crosslinking of 32P-2-5A probe in presence of unlabeled oligonucleotide competitors; assay type: binding; conditions: for competition with binding of the 2-5A probe: competitor 100 nM, recombinant 74 kDa protein (clone ZB1) in wheat germ extract, similar profile for L929 cell enzyme; for concentration of competitor that prevents 2-5A probe binding: probe 2.4 nM, both truncated recombinant (ZB1) and naturally occurring L cell protein
Experimental: FIG. 2A is a specific affinity of truncated murine 2-5A-dependent RNase for 2-5A. UV covalent crosslinking of the ^32 P-2-5A probe (lanes 1-7) to protein is performed after translation reactions in wheat germ extract (5 μl) with murine 2-5A-dependent RNase mRNA (from clone ZB1) (lanes 1-3) or without added RNA (lane 4) or in extract of interferon treated mouse L cells (100 μg of protein) (lanes 5-7). Reactions are without added competitor (lanes 1, 4, and 5) or in the presence of either trimer core. […] Lanes 8 and 9 are produced by incubating the wheat germ extract with ^35 S-methionine in the absence or presence of 2-5A-dependent RNase mRNA, respectively.
Autoradiograms of the dried SDS/10% polyacrylamide gels are shown. Concentrations of the oligonucleotide competitors are indicated. I is inosine.
The synthesis of the 2-5A probe, p(A2'p)2 (br^8 A2'p)2 A[32P]Cp, and its crosslinking to 2-5A-dependent RNase is performed exactly as described. See Nolan-Sorden, N. L. et al., Anal. Biochem., 184:298-304 (1990). Briefly, the 2-5A probe, about 0.7 to 2.5 nM at […], is incubated for about one hour on ice with cell extract prepared as described, Silverman, R. H. and Krause, D., I.R.L. Press, Oxford. England, pp. 149-193 (1987), in the absence or presence of unlabeled oligonucleotide competitors. Covalent crosslinking is done under a uv lamp (308 nm) for one hour on ice and the proteins are separated on SDS/10% polyacrylamide gels. Filter assays for 2-5A binding activity using the 2-5A probe for about one hour on ice, as described in Knight, M. et al., Nature, 288:189-192 (1980).

[5] = system: human recombinant 2-5A-dependent RNase; test: 2-5A-dependent ribonuclease assay, crude extract of recombinant baculovirus-infected insect cells, poly(rU) degradation; conditions: activator at 100 nM, thirty minutes
Experimental: Crude cell extracts, containing 2 μg of protein, were incubated with 12 nM poly(rU)-^32 p[Cp] for 30 minutes at 30° C. in the presence of absence of 100 nM of tetramer 2-5A. RNA degradation was determined by measuring acid-insoluble fraction of RNA as described (Silverman, R. H. Anal. Biochem., 144:450-460 1985).
To measure the catalytic activity of the recombinant enzyme, ribonuclease assay was performed in the presence and absence of trimer 2-5A, p3 (A2'p)2 A. The degradation of radiolabeled poly(rU) to acid-soluble fragments was measured in this assay (Silverman, R. H., Anal. Biochem. 144,450-460 1985).
as §3

[6] = system: human 2-5A-dependent RNase; test: UV covalent crosslinking of 2-5A probe in presence of competitors; assay type: binding; conditions: competitor 100 nM; recombinant human enzyme in wheat germ extract; same pattern in HeLa cell extract
Experimental: FIG. 5A is specific affinity of recombinant human 2-5A-dependent RNase for 2-5A. Crosslinking of the 2-5A probe (lanes 1-7) to protein is performed after translation reactions in wheat germ extract (5 μl) with human 2-5A-dependent RNase mRNA (lanes 1-3) or without added RNA (lane 4) or in extract of human interferon α treated (1000 units per ml for 16 h) human HeLa cells (350 μg of protein) (lanes 5-7). […] Incubations with ^35 S-methionine are shown in lanes 8 to 12. Lane 8 is with wheat germ extract and human 2-5A-dependent RNase mRNA. Reticulocyte lysate preadsorbed to 2-5A-cellulose is incubated with human 2-5A-dependent RNase mRNA in the absence (lane 9) or presence (lane 10) of cycloheximide, or in the absence of added mRNA (lane 11). […] The positions and relative molecular masses (in kDa) of the marker proteins are indicated.
The synthesis of the 2-5A probe, p(A2'p)2 (br^8 A2'p)2 A[32P]Cp, and its crosslinking to 2-5A-dependent RNase is performed exactly as described. See Nolan-Sorden, N. L. et al., Anal. Biochem., 184:298-304 (1990). Briefly, the 2-5A probe, about 0.7 to 2.5 nM at […], is incubated for about one hour on ice with cell extract prepared as described, Silverman, R. H. and Krause, D., I.R.L. Press, Oxford. England, pp. 149-193 (1987), in the absence or presence of unlabeled oligonucleotide competitors. […]

2-5A probe = test: 2-5A binding activity of nested 3'-deletion clones (filter binding and uv crosslinking); conditions: protein expressed in wheat germ extract
Excerpt: See Example and Knight et al. (1980). The positions of the P-loop motifs and the lengths of the translation products are indicated. Clone ZB1 encodes for amino acids designated as 1-656 in Table II, except for the last 5 amino acid residues which are Lys, Pro, Leu, Ser, and Gly. Clone ZB2 encodes for amino acids designated as 1-619 in Table II. Clone ZB3 encodes for amino acids designated as 1-515 in Table II. Clone ZB5 encodes for amino acids designated as 1-474 in Table II. Clone ZB9 encodes for amino acids designated as 1-403 in Table II. Clone ZB10 encodes for amino acids designated as 1-365 in Table II. Clone ZB13 encodes for amino acids designated as 1-294 in Table II. Clone ZB14 encodes for amino acids designated as 1-265 in Table II. Clone ZB15 encodes for amino acids designated as 1-218 in Table II.
To further define sequences involved in 2-5A binding, nested 3'-deletions of the murine 2-5A-dependent RNase cDNA, clone ZB1, are constructed, transcribed in vitro, and expressed in a wheat germ extract. […] The levels of 2-5A binding activity are determined with the 2-5A probe in both a filter binding assay, Knight, M. et al., Nature, 288:189-192 (1980), and the uv crosslinking assay, Nolan-Sorden, N. L. et al., Anal. Biochem., 184:298-304 (1990), with similar results. Expression of clone ZB11, encoding amino acid residues 1 to 342, results in a loss of only about 26% of the 2-5A binding activity as compared to clone ZB1 (amino acids 1 to 656). Clones intermediate in length between ZB1 and ZB11 all result in significant levels of 2-5A binding activity. […] See also Saraste, M. et al., TIBS, 14:430-434 (1990).
The set of nested 3'-deletions of the truncated murine 2-5A-dependent RNase cDNA, ZB1, is generated with exonuclease III/S1 nuclease digestion followed by filling-in with Klenow DNA Polymerase using the "Erase-A-Base"system (Promega).
The synthesis of the 2-5A probe, p(A2'p)2 (br^8 A2'p)2 A[32P]Cp, and its crosslinking to 2-5A-dependent RNase is performed exactly as described. See Nolan-Sorden, N. L. et al., Anal. Biochem., 184:298-304 (1990). […]

pA(2'p5'A)3
concentration giving maximal activation of 2-5A-dependent RNase [1]: 1 nM

[Ca+2] [calcium]
effect on 2-5A-dependent RNase activity (2-5A-dependent RNase [2]): no effect; also recorded: did not enhance ribonuclease activity
effect on 2-5A-binding activity (2-5A-dependent RNase [3]): enhanced

[Zn+2] [zinc]
effect on 2-5A-dependent RNase activity (2-5A-dependent RNase [2]): inhibitory
effect on 2-5A-binding activity (2-5A-dependent RNase [3]): enhanced

[Mn+2] [manganese]
effect on 2-5A-dependent RNase activity (2-5A-dependent RNase [2]): greatly stimulated
effect on 2-5A-binding activity (2-5A-dependent RNase [3]): greatly stimulated

p3 (A2'p)2 A
competition with binding of the 2-5A probe [4]: completely prevents probe binding
concentration of competitor that prevents 2-5A probe binding [4]: about 20 nM
RNA (poly(rU)) degraded [5]: 93%
competition with binding of the 2-5A probe [6]: effectively competes
concentration giving maximal activation of 2-5A-dependent RNase [1]: 1 nM

(A2'p)2 A
fold higher concentration than trimer 2-5A required to prevent probe binding ([4]; both proteins): 500 fold
competition with binding of the 2-5A probe [4]: fails to interfere
concentration of competitor that prevents 2-5A probe binding [4]: 10 µM
competition with binding of the 2-5A probe [6]: not prevented
fold reduced activity as activator relative to 2-5A (5'-triphosphorylated trimer) [1]: more than 100 fold

A(2'p5'A)4
activation of 2-5A-dependent RNase (in words) [1]: enhanced activity

[Mg+2] [magnesium]
effect on 2-5A-dependent RNase activity (2-5A-dependent RNase [2]): greatly stimulated
effect on 2-5A-binding activity (2-5A-dependent RNase [3]): greatly stimulated

p3 I2'pA2'pA
concentration of competitor that prevents 2-5A probe binding [4]: about 1.0 μM
activation of 2-5A-dependent RNase (in words) [1]: more than ten-fold less effective
fold reduced activity as activator relative to 2-5A (5'-triphosphorylated trimer) [1]: 10 fold

A(2'p5'A)3
activation of 2-5A-dependent RNase (in words) [1]: enhanced activity

pppA(2'p5'A)3
concentration giving maximal activation of 2-5A-dependent RNase [1]: 1 nM

B1: clone ZB11: murine 2-5A-dependent RNase deletion, amino acid residues 1 to 342 (protein, UniProt Q05921 1-342, looked up, fragment)
chain: METPDYNTPQGGTPSAGSQRTVVEDDSSLIKAVQKGDVVRVQQLLEKGADANACEDTWGWTPLHNAVQAGRVDIVNLLLSHGADPHRRKKNGATPFIIAGIQGDVKLLEILLSCGADVNECDENGFTAFMEAAERGNAEALRFLFAKGANVNLRRQTTKDKRRLKQGGATALMSAAEKGHLEVLRILLNDMKAEVDARDNMGRNALIRTLLNWDCENVEEITSILIQHGADVNVRGERGKTPLIAAVERKHTGLVQMLLSREGINIDARDNEGKTALLIAVDKQLKEIVQLLLEKGADKCDDLVWIARRNHDYHLVKLLLPYVANPDTDPPAGDWSPHSSRW
loss of 2-5A binding activity as compared to clone ZB1 (2-5A probe): about 26%

B2: clone ZB13: murine 2-5A-dependent RNase deletion, amino acids 1 to 294 (protein, UniProt Q05921 1-294, looked up, fragment)
chain: METPDYNTPQGGTPSAGSQRTVVEDDSSLIKAVQKGDVVRVQQLLEKGADANACEDTWGWTPLHNAVQAGRVDIVNLLLSHGADPHRRKKNGATPFIIAGIQGDVKLLEILLSCGADVNECDENGFTAFMEAAERGNAEALRFLFAKGANVNLRRQTTKDKRRLKQGGATALMSAAEKGHLEVLRILLNDMKAEVDARDNMGRNALIRTLLNWDCENVEEITSILIQHGADVNVRGERGKTPLIAAVERKHTGLVQMLLSREGINIDARDNEGKTALLIAVDKQLKEIVQLLLE
2-5A binding activity, % of the activity of clone ZB1 (2-5A probe): about 38.3%

B3: clone ZB15: murine 2-5A-dependent RNase deletion, amino acids 1 to 218, both P-loop motifs deleted (protein, UniProt Q05921 1-218, looked up, fragment)
chain: METPDYNTPQGGTPSAGSQRTVVEDDSSLIKAVQKGDVVRVQQLLEKGADANACEDTWGWTPLHNAVQAGRVDIVNLLLSHGADPHRRKKNGATPFIIAGIQGDVKLLEILLSCGADVNECDENGFTAFMEAAERGNAEALRFLFAKGANVNLRRQTTKDKRRLKQGGATALMSAAEKGHLEVLRILLNDMKAEVDARDNMGRNALIRTLLNWDCENV
2-5A binding activity, % of the activity of clone ZB1 (2-5A probe): completely lacking
